Laboratory results: patent publication US7964219B2, “Pharmaceutical compositions for controlled release delivery of biologically active compounds” (QPS, LLC, priority 2004, dated 2011)

Tests used:
[1] = Stability of octreotide in injectable formulations at room temperature by HPLC (Example 12)
Protocol: Injectable formulations of octreotide were prepared by dispersing octreotide in polymer solution in an appropriate solvent. […] The mixture was thoroughly mixed until a uniform suspension or solution was obtained. Six injectable formulations were prepared as shown below.
The stability of octreotide in the above injectable formulations at room temperature was monitored by HPLC and the results are shown in the table below.

[2] = Stability of octreotide in injectable formulations at room temperature by HPLC (Example 13); format: physicochemical; settings: PLGA/NMP vehicle, after 24 h
Protocol: The injectable polymer solutions were prepared by dispersing octreotide phytate or acetate or citrate. […] Injectable formulations were prepared as shown below.
It appears that both salt forms of octreotide and the solvent affect the stability of octreotide. In terms of the stability of octreotide, mPEG is preferred than NMP and phytate complex form of octreotide is preferred than acetate and citrate salt of octreotide.

[3] = Release of octreotide in vivo in rats by implant retrieval (Example 14); parameters: species or system Sprague-Dawley male rats; settings: PLGA/NMP vehicle, after 24 h
Protocol: Poly(DL-lactide-co-glycolide) (PLGA) was dissolved in N-methyl-2-pyrrolidone (NMP), or methoxypolyethylene glycohol (mPEG) to give a 40% solution by weight. The injectable formulations were prepared by dispersing octreotide phytate or acetate. The mixture was thoroughly mixed until a uniform suspension or solution was obtained. These formulations of octreotide (roughly about 100 uL) were administered subcutaneously in the back of the Sprague-Dawley male rats. The release of octreotide was determined by implant retrieval at predefined time intervals (30 min for group G and 24 h for groups A through F) after ministration and analysis of the octreotide remaining in the implant.

| SMILES | octreotide degraded or acylated ([1]; PLGA solution in NMP, room temperature) | Stability of octreotide (degraded or reacted) ([1]; after three days at room temperature) | degradation/reaction of octreotide in vitro [2] | degradation/reaction of octreotide in vivo [3] |
| --- | --- | --- | --- | --- |
| C[C@@H](O)[C@@H]1NC(=O)[C@H](CCCCN)NC(=O)[C@@H](Cc2c[nH]c3ccccc23)NC(=O)[C@H](Cc2ccccc2)NC(=O)[C@@H](NC(=O)[C@H](N)Cc2ccccc2)CSSC[C@@H](C(=O)N[C@H](CO)[C@@H](C)O)NC1=O [octreotide acetate] | ~100% | significant amount of the octreotide was degraded or reacted | – | – |
| C[C@@H](O)[C@@H]1NC(=O)[C@H](CCCCN)NC(=O)[C@@H](Cc2c[nH]c3ccccc23)NC(=O)[C@H](Cc2ccccc2)NC(=O)[C@@H](NC(=O)[C@H](N)Cc2ccccc2)CSSC[C@@H](C(=O)N[C@H](CO)[C@@H](C)O)NC1=O [octreotide] | – | – | 85% | 30% |
